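Following 48 hours of exposure in 96-well plates, responses at five concentrations were used to interpolate endpoints linearly. At the GI50, growth is halved. TGI denotes the concentration required for complete inhibition of growth.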
Assays:
Experiment in all cases: DTP human tumour cell line panel, 48 h
CCRF-CEM leukemia = system: CCRF-CEM leukemia
COLO 205 colon = system: COLO 205 colon
K-562 leukemia = system: K-562 leukemia
MOLT-4 leukemia = system: MOLT-4 leukemia
NCI-H226 lung = system: NCI-H226 lung
NCI-H23 lung = system: NCI-H23 lung
SK-MEL-28 melanoma = system: SK-MEL-28 melanoma
SW-620 colon = system: SW-620 colon
SNB-19 CNS = system: SNB-19 CNS
SR leukemia = system: SR leukemia

Row | SMILES | TGI (CCRF-CEM leukemia) [µM] | TGI (COLO 205 colon) [µM] | TGI (K-562 leukemia) [µM] | TGI (MOLT-4 leukemia) [µM] | TGI (NCI-H226 lung) [µM] | TGI (NCI-H23 lung) [µM] | TGI (SK-MEL-28 melanoma) [µM] | TGI (SW-620 colon) [µM] | TGI (SNB-19 CNS) [µM] | TGI (SR leukemia) [µM] | GI50 (COLO 205 colon) [µM] | GI50 (K-562 leukemia) [µM] | GI50 (MOLT-4 leukemia) [µM] | GI50 (SK-MEL-28 melanoma) [µM] | GI50 (SNB-19 CNS) [µM] | GI50 (SW-620 colon) [µM] | GI50 (CCRF-CEM leukemia) [µM] | GI50 (NCI-H23 lung) [µM] | GI50 (SR leukemia) [µM] | GI50 (NCI-H226 lung) [µM]
1 | C=C1C(=O)c2cc3c(cc2C(c2cc(OC)c(OC)c(OC)c2)[C@@H]1C(=O)O)OCO3 (some centres undefined) | > 100 | > 100 | > 100 | > 100 | > 100 | > 100 | > 100 | > 100 |  |  |  |  |  |  |  |  |  |  |  | 
2 | C=C(COC(C)=O)CC(/C=C(\C)CC/C=C(\C)CO)OC(C)=O (centres undefined) | > 100 | > 100 | > 100 | > 100 | > 100 | > 100 | > 100 | > 100 | > 100 |  |  |  |  |  |  |  |  |  |  | 
3 | N#Cc1c(-c2ccccc2)cc(-c2cccs2)c(C#N)c1N | > 100 |  | > 100 | > 100 |  |  |  | > 100 | > 100 |  |  |  |  |  |  |  |  |  |  | 
4 | C=C1c2[nH]c3ccccc3c2CC(C(=O)O)N1C(O)c1ccc(S(=O)(=O)O)cc1 (centres undefined) | > 100 |  | > 100 | > 100 | > 100 | > 100 | > 100 | > 100 | > 100 | > 100 |  |  |  |  |  |  |  |  |  | 
5 | O=C1NC(=O)C(c2ccccc2)=C1Nc1ccccc1 |  | > 25 | > 25 | > 25 |  |  | > 25 | > 25 | > 25 |  | > 25 | > 25 | > 25 | > 25 | > 25 | > 25 |  |  |  | 
6 | O=C(O)c1cn(C2CC2)c2cc(N3CCN(C(=O)Nc4nc(-c5ccc(Br)cc5)cs4)CC3)c(F)cc2c1=O | > 100 |  | > 100 | > 100 |  | > 100 | > 100 | > 100 | > 100 | > 100 |  | 1.51 | 0.622 | 4.08 | 1.41 | 4.13 | 1.23 | 1.43 | 0.454 | 
7 | C=CCC12CCC(=O)[C@@]1(C)CC=C(O)C2=O (some centres undefined) | > 100 | > 100 |  | > 100 | > 100 |  | > 100 | > 100 | > 100 | > 100 |  |  |  |  |  |  |  |  |  | 
8 | O=C1C(=C([O-])c2ccccc2)C(=O)c2ccccc21.O=C1C(=C([O-])c2ccccc2)C(=O)c2ccccc21.[Co+2] | > 100 | > 100 | > 100 | > 100 | > 100 | > 100 | > 100 | > 100 | > 100 |  | 38.5 | > 100 | > 100 | > 100 | > 100 | > 100 | 38.6 | > 100 |  | > 100
9 | N#Cc1c2ccccc2c2nnc3ccc(C(F)(F)F)cc3n12 | > 100 | > 100 | > 100 | > 100 |  | > 100 | > 100 | > 100 | > 100 | > 100 | 39.4 | 59.9 | 10.4 | > 100 | > 100 | 66.7 | 71 | 33.5 | 0.214 | 
10 | O=c1nc(N2CCCC2)nc(N2CCCC2)s1 | > 100 |  | > 100 | > 100 | > 100 | > 100 | > 100 | > 100 | > 100 | > 100 |  |  |  |  |  |  |  |  |  | 
11 | COC1=CC(=O)OC(/C=C(C)/C=C/C2=C(C)CCCC2(C)C)C1 (centres undefined) | > 100 |  | > 100 | > 100 | > 100 | > 100 | > 100 | > 100 | > 100 | > 100 |  |  |  |  |  |  |  |  |  | 
12 | CC(=O)SC(SC(C)=O)SC(C)=O | 81 | 82.9 | > 100 | > 100 | > 100 | > 100 | > 100 | > 100 | > 100 |  |  |  |  |  |  |  |  |  |  | 
13 | CCC1c2cc3n(c(=O)c2COC1O)Cc1c-3nc2ccccc2c1Cl (centres undefined) | > 100 | > 100 | > 100 | > 73 | > 100 | > 100 | > 100 | > 100 | > 100 |  |  |  |  |  |  |  |  |  |  | 
14 | c1ccc(-c2cn(-c3ccccc3)c(-c3ccccc3)n2)cc1 | 7.06 | 23.4 | 18.7 | > 100 | 37.7 | 34.9 | 16.5 | 3.83 | 23.9 |  | 10.9 | 3.54 | 3.16 | 4.75 | 11.5 | 1.95 | 2.75 | 16.6 |  | 19.8
15 | COc1cc2c3c(n(CCCN4CCCNCC4)c(=O)c2cc1OC)-c1cc2c(cc1C3=O)OCO2 | 8.06 | 10.8 | 18.5 | 50 | 3.03 | 2.57 | 14.1 | 12 | 9.62 |  | 2.21 | 0.476 | 0.0384 | 2.49 | 1.26 | 0.267 | 0.0721 | 0.346 |  | 0.303
16 | O=[N+]([O-])/C=C/c1cc2ccc3ccccc3c2[nH]1 | 2.8 | 4.29 | 18.2 | > 100 | 2.78 | 5.07 | 4.79 | 4.87 | 7.79 |  |  |  |  |  |  |  |  |  |  | 
17 | NC(=O)CCc1ccccc1Oc1nccc(-c2c(-c3ccc(F)cc3)ncn2C2CCNCC2)n1 |  | > 25 | > 25 | > 25 |  |  | > 25 | > 25 | > 25 |  | > 25 | > 25 | > 25 | > 25 | > 25 | > 25 |  |  |  | 
18 | COc1cc(/C=C/C(=O)c2c(C)nc3ccccc3c2C)ccc1OCCCCOc1cc2c(cc1OC)C(=O)N1CCC[C@H]1C=N2 | 1.48 | 2.14 |  | 1.12 | 3.26 | 1.42 | 0.647 | 0.538 | 2.57 | > 100 | 0.74 |  | 0.325 | 0.214 | 0.872 | 0.203 | 0.225 | 0.396 | 0.325 | 1.3
